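Five concentrations, 48 hours, 96-well plates. The concentration for full growth arrest is given as TGI.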
Columns and labels:
Experiment in all cases: NCI anticancer screen, dose series, 48 h
SNB-75 CNS = system: SNB-75 CNS
SNB-19 CNS = system: SNB-19 CNS
SK-MEL-2 melanoma = system: SK-MEL-2 melanoma
RPMI-8226 leukemia = system: RPMI-8226 leukemia
CCRF-CEM leukemia = system: CCRF-CEM leukemia
KM12 colon = system: KM12 colon
MDA-MB-435 = system: MDA-MB-435
SK-MEL-28 melanoma = system: SK-MEL-28 melanoma
A498 renal = system: A498 renal
SK-MEL-5 melanoma = system: SK-MEL-5 melanoma
SK-OV-3 ovarian = system: SK-OV-3 ovarian

SMILES	TGI (SNB-75 CNS) [µM]	TGI (SNB-19 CNS) [µM]	TGI (SK-MEL-2 melanoma) [µM]	TGI (RPMI-8226 leukemia) [µM]	TGI (CCRF-CEM leukemia) [µM]	TGI (KM12 colon) [µM]	TGI (MDA-MB-435) [µM]	TGI (SK-MEL-28 melanoma) [µM]	TGI (A498 renal) [µM]	TGI (SK-MEL-5 melanoma) [µM]	TGI (SK-OV-3 ovarian) [µM]
N#CCCC1C(C#N)C2(Cl)CC1(Cl)C(Cl)=C2Cl (stereo not given)	> 10	> 10	> 10	> 10	> 10	> 10	> 10	> 10	> 10	> 10	> 10
CCOC(=O)C1(C/C=C/CBr)Cc2ccccc2C1=O (stereo not given)	31.9	37.2	6.13	4.88	5.36	10.8	3.19	20.8	32.6	7.66	21.5
O=C1C=CC(=O)c2c1ccc1c3ccccc3n(CCCCCCCCCCCCn3c4ccccc4c4ccc5c(c43)C(=O)C=CC5=O)c21	> 100	> 100	> 100	> 100	74.1	> 100	> 100	> 100	> 100	> 100	> 100
N#Cc1c(N2CCCC2)ncn(-c2ccccc2)c1=O	> 100	> 100	> 100	> 100	> 100	> 100	> 100	> 100	> 100	> 100	> 100
CCCCCCc1cc2cc(-c3csc(CC#N)n3)c(=O)oc2cc1O	> 100	> 100	> 100	> 100	> 100	> 100	> 100	> 100	> 100	> 100	97.6
COc1ccc2cc(NC(=O)N/N=C\c3ccc([N+](=O)[O-])cc3)ccc2c1	65.4	47.9	> 100	> 100	> 100	> 100	> 100	> 100	> 100	> 100	> 100
c1ccc(N=c2sc3ccccc3nc2Nc2ccccc2)cc1	> 100	> 100	> 100	> 100	> 100	> 100	> 100	> 100	> 100	> 100	> 100
CN1CCN(C2=NCCO2)CC1	> 100	> 100	> 100	> 100	> 100	> 100	> 100	> 100	> 100	> 100	> 100
COC(=O)C1SC(SC)=NC12c1ccccc1Nc1ccccc12 (stereo not given)	> 100	> 100	47.3	49.4	> 100	> 100	67.8	48.5	> 100	31	> 100
CN1CCc2cc(N)cc3c2C1Cc1ccc(O)c(O)c1-3 (stereo not given)	> 100	> 100	> 100	66.4	37.2	> 100	> 100	> 100	> 100	46.5	> 100
O=C1/C(=C/c2ccccc2)N=C2Sc3c(nc[nH]c3=O)N12	> 100	> 100	> 100	> 100	> 100	> 100	> 100	> 100	> 100	> 100	> 100
Cc1ccccc1C(=O)N1CCc2c([nH]c3ccccc23)C1	61.9	> 100	27	51.3	74	87	37.3	> 100	51.4	29.6	> 100
CCOC(=O)C(SCCO)C(C(=O)OCC)n1cnc2c(=O)[nH]c(NC(C)=O)nc21 (stereo not given)	> 100	> 100	> 100	> 100	> 100	> 100	> 100	> 100	> 100	> 100	> 100
C[C@@H](NC(=O)[C@@H]1C[C@]1(C)COC(=O)c1cc([N+](=O)[O-])cc([N+](=O)[O-])c1)c1cccc2ccccc12	> 100	> 100	> 100	> 100	> 100	> 100	> 100	> 100	> 100	> 100	> 100
COC(=O)c1ccccc1CC1Cc2ccc3c(c2C1=O)CCCC3 (stereo not given)	> 100	> 100	> 76.3	> 75.5	> 86.5	> 100	> 100	> 100	> 100	34.8	> 100

Reference: PubChem BioAssay (NCI)
